In PubChem BioAssay (NCI) one finds GI50 and TGI data, which are given here for 42 compounds.

Each structure is given as a SMILES string.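 Tested at 5 concentrations; 48 h exposure; 96-well plates; endpoints linearly interpolated, else capped at highest concentration. GI50 marks 50% less growth. The concentration for full growth arrest is given as TGI.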 *1 amine or outer side, *2 acyl side, *3 side chain or, on linkers, in order; H or OH if unused. Where a SMILES comes first, the peptide text is derived from it. Bridges are numbered along the chain shown (N, C = ends). [ ]: non-standard residue; d: D form. The star is where a group is joined. ξ: configuration not given here. Phe(3,5-F2) = N[C@@H](Cc1cc(F)cc(F)c1)C(=O)O; ξThr(3S) = C[C@H](O[*:3])C(N[*:1])C(=O)[*:2]; X25 = C[C@H]1OCCN([*:1])[C@@H]1C(=O)[*:2]; Phe(3-F) = N[C@@H](Cc1cccc(F)c1)C(=O)O; Pro(4R-Me) = C[C@H]1CN[C@H](C(=O)O)C1; aThr = C[C@H](O)[C@H](N)C(=O)O; X24 = O=S(=O)(F)Oc1ccc(N*)cc1; Pip = O=C(O)[C@@H]1CCCCN1; X8 = CCc1ccc(N*)c(F)c1; CO = O=C([*:1])[*:2]

For the experiment, the system named is MDA-MB-468 breast. The experiment is described as follows: DTP human tumour cell line panel, 48 h.
As a reminder, the GI50 is the concentration that inhibits growth by half. As usually defined, the TGI is the concentration at which net growth stops. Read a low TGI as more potent growth arrest. Turning to `O=c1[nH]c2ccccc2cc1-c1nnc(Cc2ccccc2)o1`, the GI50 was 2290 nM and the TGI was determined as 9870 nM.

Take `C#COc1cccc(Nc2ncnc3cc(NC(=O)[C@@H](C)Cl)ccc23)c1`: the GI50 is 13500 nM and the concentration for total growth inhibition (TGI) came to 50800 nM.

For the compound `C[C@]12CCc3nc(Nc4ccc(O)cc4)sc3C1=CC[C@@H]1[C@@H]2CC[C@]2(C)/C(=N/NC(N)=S)CC[C@@H]12`, the GI50 was 1300 nM and the TGI worked out at 3020 nM.

For the compound `CO[C@H]1C(=O)[C@]2(C)[C@@H](OC)C[C@H]3OC[C@@]3(OC(C)=O)[C@H]2[C@H](OC(=O)c2ccccc2)[C@]2(O)C[C@H](OC(=O)[C@H](O)[C@@H](NC(=O)OC(C)(C)C)c3ccccc3)C(C)=C1C2(C)C`, the GI50 is less than 10 nM and the TGI is 419 nM.

Regarding `COc1ccc([C@@]23Oc4cc(OC)cc(OC)c4[C@]2(O)[C@H](O)[C@H](C(=O)N(C)C)[C@H]3c2ccccc2)cc1`, the GI50 was 15.1 nM and the TGI stood at 141 nM.

Take `CN(C)C1C(=O)C(C(N)=O)=C(O)C2(O)C(=O)C3=C(O)c4c(O)cccc4C(C)(O)C3CC12.[Cl][Sb]([Cl])[Cl]` (stereo not drawn): the GI50 is 2500 nM and the TGI was determined as 8830 nM.

Consider `CCc1ccc(Oc2c(-c3ccc(OCc4ccc(Cl)cc4)cc3O)nn(C)c2C(F)(F)F)cc1`, for which the GI50 is 337 nM and the total growth inhibition concentration (TGI) stood at 1620 nM.

For `C[C@@H]1C[C@H]2C(=O)O[C@@H](C)C(NC(=O)[C@H](Cc3cc(F)cc(F)c3)NC(=O)Nc3ccc(OS(=O)(=O)F)cc3)C(=O)N3CCC[C@H]3C(=O)N3CCO[C@H](C)[C@H]3C(=O)N[C@@H](CO)C(=O)N2C1` (stereo partly drawn) ({X24-CO}-[Phe(3,5-F2)][ξThr(3S)]P[X25]S[Pro(4R-Me)]; ester 2-C), the GI50 was 416 nM and the TGI is 5810 nM.

`S=C(Sc1ccc(Cl)cc1)Sc1ccc(Cl)cc1`: the GI50 is 2300 nM and the TGI was determined as 6900 nM.

In the case of `Cc1cc(NC(=O)NC(=O)c2ccccc2NC(=O)CN(C)C)ccc1Oc1ncc(Br)cn1`, the GI50 is 3620 nM and the TGI is more than 100000 nM.

On to `Nc1c(C(=O)Nc2ccccc2)sc2nc3c(cc12)C(=O)CCC3`, for which the GI50 was 161 nM and the total growth inhibition concentration (TGI) worked out at 611 nM.

Turning to `Cc1ccc2ccc3c4ccccc4ccc3c2c1`, the GI50 is 16100 nM and the total growth inhibition concentration (TGI) stood at 40400 nM.

On to `Cc1ccc(C(=O)Nc2ccc(Oc3cc4cnn(C)c4cc3-c3cn[nH]c3)c(F)c2)c(=O)n1-c1ccc(F)cc1`, for which the GI50 was 3200 nM and the TGI is more than 100000 nM.

Take `OCc1ccc(-c2ccc(-c3ccc(CO)o3)o2)o1`: the GI50 was 764 nM and the TGI was determined as 3050 nM.

As to `CN(C)CCCOc1ccc(NC2=C(Cl)C(=O)C(Nc3ccc(OCCCN(C)C)cc3)=C(Cl)C2=O)cc1`, the GI50 was 360 nM and the TGI worked out at 1260 nM.

Turning to `O=C(Nc1ccc(-n2cc(-c3ccncc3)c(-c3ccc(O)c(Cl)c3)n2)cc1)Nc1cc(C(F)(F)F)cc(C(F)(F)F)c1`, the GI50 is 3280 nM and the TGI is 13200 nM.

With `CC[n+]1c(-c2ccccc2)c2cc(N)ccc2c2ccc(N)cc21`, the GI50 is 160 nM and the TGI stood at 609 nM.

In the case of `CCN(CC)CCCC(Nc1c2ccc(Cl)cc2nc2ccc(OC)cc12)c1ccc(Cl)cc1` (stereo not drawn), the GI50 is 352 nM and the TGI was found to be 1190 nM.

For `CCc1ccc(NC(=O)N[C@@H](Cc2cccc(F)c2)C(=O)N[C@@H]2C(=O)N3CCC[C@H]3C(=O)N3CCCC[C@H]3C(=O)N[C@@H](C)C(=O)N3C[C@H](C)C[C@H]3C(=O)O[C@H]2C)c(F)c1` ({X8-CO}-[Phe(3-F)][aThr]P[Pip]A[Pro(4R-Me)]; ester 2-C), the GI50 is 129 nM and the concentration for total growth inhibition (TGI) was found to be 799 nM.

On to `O=C(Nc1ccc(-n2cc(-c3ccncc3)c(-c3ccc(Cl)c(O)c3)n2)cc1)c1cc(C(F)(F)F)cc(C(F)(F)F)c1`, for which the GI50 is 2160 nM and the TGI was found to be 7600 nM.

Consider `N#CN1CC[C@H](C(=O)Nc2ncc(-c3ccccc3)s2)C1`, for which the 50% growth inhibitory concentration (GI50) is 177 nM and the TGI came out at 423 nM.

In the case of `O=c1[nH]c(=S)[nH]c(O)c1/C=C1\C=Nc2ccccc21`, the GI50 is 14400 nM and the TGI amounted to 31100 nM.

In the case of `COc1cc(OC)c(S(N)(=O)=O)cc1C(=O)/C=C/c1ccc(C)cc1`, the GI50 is 1960 nM and the TGI turned out to be 7030 nM.

Consider `Nc1ncnc2c1c(-c1ccc(Oc3ccccc3)cc1)nn2CC1SSCC1O` (stereo not drawn), for which the GI50 was 801 nM and the TGI worked out at 2020 nM.

Regarding `CN(C)CCNC(=O)Nc1ccc(N(C)c2ccnc(Nc3ccc(CS(C)(=O)=O)cc3)n2)cc1`, the GI50 is more than 13300 nM and the TGI was more than 25000 nM.

As for `NC(=O)c1nc(-c2c(F)cccc2Cl)oc1Nc1ccc(C(=O)N2CCOCC2)cc1`, the GI50 is 4330 nM and the TGI stood at 36700 nM.

For `COc1cc([C@@H]2c3cc4c(cc3[C@H](SC(=N)N)[C@H]3COC(=O)[C@H]23)OCO4)cc(OC)c1OC`, the GI50 was 106 nM and the TGI came out at 2570 nM.

As for `Cc1ccccc1Nc1cc(O)c2c(=O)cc(-c3ccccc3)oc2c1`, the GI50 was 379 nM and the TGI came out at 3030 nM.

In the case of `COC(=O)c1ccc(NC(N)=NCCC(C)(C)c2ccc(C(F)(F)F)cc2)nc1`, the GI50 was 1100 nM and the TGI came to 2790 nM.

As for `O=C(NNc1nc2cc(F)ccc2n2c(CN3CCC(O)C3)ccc12)c1cnccn1` (stereo not drawn), the GI50 is 815 nM and the TGI was found to be 7630 nM.

Take `Cn1cc(-c2ccc3ncc(-c4ccc(CC(=O)Nc5cc(C(C)(C)C)nn5C)cc4)cc3c2)cn1`: the GI50 is 799 nM and the TGI is more than 20000 nM.

Turning to `COC(=O)[C@]12CC[C@@H](C)[C@H](C)[C@@H]1C1=CC[C@@H]3[C@@]4(C)C(C=O)=C[C@@](C)(COS(C)(=O)=O)C4=CC[C@@]3(C)[C@]1(C)CC2`, the GI50 was 247 nM and the TGI is 752 nM.

Consider `CCOC(=O)[C@@H](C)C[C@H](Cc1ccccc1)NC(=O)c1csc([C@@H](C[C@H](C(C)C)N(C)C(=O)CNC(=O)[C@H]2CCCCN2C)OC(C)=O)n1`, for which the 50% growth inhibitory concentration (GI50) was 216 nM and the TGI turned out to be 736 nM.

With `C/C(=C/CCC(C)[C@@H]1CC[C@]2(C)C3=C(CC[C@@]12C)[C@@]1(C)CCC(=O)C(C)(C)[C@@H]1CC3)C(=O)O` (stereo partly drawn), the GI50 is 1110 nM and the concentration for total growth inhibition (TGI) stood at 2710 nM.

In the case of `NC1=NC(c2ccccc2Cl)c2c(n[nH]c2N)N1` (stereo not drawn), the GI50 was 11100 nM and the TGI was 99600 nM.

As to `O=C(CI)NC(=O)NC(=O)NCc1ccccc1`, the GI50 was 2120 nM and the TGI was found to be 4660 nM.

As for `O=C1Nc2ccc(-c3cccnc3)cc2/C1=C/c1cc(Br)c(O)c(Br)c1`, the GI50 was 6020 nM and the TGI was found to be 16100 nM.

`COc1cccc(-c2cc(=O)c3cc(N4CCN(C)CC4)ccc3[nH]2)c1`: the GI50 was 6030 nM and the TGI was more than 100000 nM.

For `CC(=O)Nc1cccc(C#Cc2cncnc2Nc2ccc(OCc3cccc(F)c3)c(Cl)c2)c1`, the GI50 was 1140 nM and the total growth inhibition concentration (TGI) amounted to 5670 nM.

`CCN1C(=O)N(CC)C2C1NC(=S)N2/N=C/C=C/c1ccccc1` (stereo not drawn): the GI50 was 54.6 nM.

Take `CCOC(=O)c1cc(C(=O)c2ccc(OC)c(OC)c2)n2c1ccc1ccc3cccnc3c12`: the GI50 was 2830 nM and the TGI is more than 100000 nM.

Consider `N#Cc1cc(F)cc(Oc2ccc(S(=O)(=O)C(F)F)c3c2CC(F)(F)[C@H]3O)c1`, for which the GI50 is 16600 nM and the TGI came out at 66900 nM.
